Positions count from the first letter of the chain named. Ends that are not written are not given here.
Columns and labels:
ADGRF1 [1] = target: T1, ADGRF1 (Homo sapiens, UniProt Q5T601, F690A); experiment: BRET assay using TRUPATH biosensors, Gs activation of ADGRF1; assay type: cell-based; details: Gs, ADGRF1 F690^ICL2A, n = 3
T1 construct: Flag (N); expressed in transfected cells; host or cells: HEK293F
T1 sequence (Q5T601 20-910 F690A): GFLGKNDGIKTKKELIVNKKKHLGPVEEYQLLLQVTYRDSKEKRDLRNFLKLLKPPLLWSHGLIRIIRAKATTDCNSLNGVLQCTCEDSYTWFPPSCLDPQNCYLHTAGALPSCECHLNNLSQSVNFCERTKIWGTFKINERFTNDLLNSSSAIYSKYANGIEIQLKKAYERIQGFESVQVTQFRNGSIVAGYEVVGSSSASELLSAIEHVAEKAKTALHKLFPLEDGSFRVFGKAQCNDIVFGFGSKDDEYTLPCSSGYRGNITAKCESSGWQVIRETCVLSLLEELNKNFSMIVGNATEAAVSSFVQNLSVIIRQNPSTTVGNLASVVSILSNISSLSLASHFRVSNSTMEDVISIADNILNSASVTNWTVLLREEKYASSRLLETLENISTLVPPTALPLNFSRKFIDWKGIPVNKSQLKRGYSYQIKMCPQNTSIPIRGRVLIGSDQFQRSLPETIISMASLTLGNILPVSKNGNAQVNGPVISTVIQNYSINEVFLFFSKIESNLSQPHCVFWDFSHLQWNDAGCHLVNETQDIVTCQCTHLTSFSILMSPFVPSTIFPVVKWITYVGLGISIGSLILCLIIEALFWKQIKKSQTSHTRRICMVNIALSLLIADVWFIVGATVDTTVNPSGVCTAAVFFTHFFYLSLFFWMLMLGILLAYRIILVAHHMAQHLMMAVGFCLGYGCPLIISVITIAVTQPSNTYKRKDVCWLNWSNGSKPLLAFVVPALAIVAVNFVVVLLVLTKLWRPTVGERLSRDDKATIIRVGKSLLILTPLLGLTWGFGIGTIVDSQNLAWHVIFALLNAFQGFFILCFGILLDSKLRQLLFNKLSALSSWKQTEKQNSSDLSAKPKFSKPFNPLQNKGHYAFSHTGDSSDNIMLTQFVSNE
Method: (§1) To study the synthetic stalk peptide-induced G protein activation of ADGRD1 and ADGRF1, a BRET assay using TRUPATH biosensors was conducted to measure the proximal interaction between RLuc8 fused to the Gα subunit and GFP2 fused to the Gγ subunit. The TRUPATH suite of biosensors was obtained from Addgene (Addgene kit no. 1000000163) as a gift from B. Roth, including GαsS-RLuc8, Gαi1-RLuc8, Gβ3 and Gγ9-GFP2 as previously described.
(§2) The wild-type or mutant ADGRD1 and ADGRF1 were transiently co-transfected with plasmids encoding Gα-RLuc8 (GαsS-RLuc8 for Gs activation assay; Gαi1-RLuc8 for Gi activation assay), Gβ3 and Gγ9-GFP2 at a ratio of 2:1:1:1 (receptor plasmid, 800 ng; G protein subunit plasmids, 400 ng for each) in 2 ml HEK293F cells at a density of 1.2 × 10^6 cells per ml. Cell cultivation and receptor surface expression measurement were performed as described above. The cells were plated into 96-well white plates (40,000 cells per well) in 60 μl of assay buffer and incubated at 37 °C for 30 min. Then 10 μl of freshly prepared 50 μM coelenterazine 400a (Nanolight Technologies) was added. […] The cells were stimulated with 30 μl of synthetic stalk peptide at different concentrations and the BRET signals were monitored continuously five times. The last measurements were used in data analysis. The BRET ratios were calculated as the ratio of the GFP2 emission to RLuc8 emission.

ADGRF1 [2] = target: T2, ADGRF1 (Homo sapiens, UniProt Q5T601, L769A); experiment: as above; assay type: cell-based
T2 construct: Flag (N); expressed in transfected cells; host or cells: HEK293F
T2 sequence (Q5T601 20-910 L769A): T1 sequence (Q5T601 20-910 F690A) with A671F, L750A
Method: as §1, §2

[3] = read-out: pEC50 (mean ± s.e.m.) (converted)

Emax (mean ± s.e.m.) (ADGRF1 [1]): 110 ± 12 % of WT
EC50 (ADGRF1 [1]; [3]): 115 nM
Emax (mean ± s.e.m.) (ADGRF1 [2]; Gs, ADGRF1 L769^5.61bA, n = 3): 73 ± 11 % of WT
EC50 (ADGRF1 [2]; [3]): 151 nM
Sequence: TSFSILMSPFVP [pF1]

Reference: PMC9046087, “Structural basis of tethered agonism of the adhesion GPCRs ADGRD1 and ADGRF1” (Nature, 2022)
